In patent US20090304692A1, “TRIAZINE COMPOUNDS AS PI3 KINASE AND MTOR INHIBITORS” (Wyeth, priority 2008, published 2009):
Where “and” joins values, the source holds several entries; their conditions need not be identical. Equal entries are not always repeated. Where two headings read alike, the source gives them in different places.

Columns and labels:
[1] = system: human breast MDA-MB-361 tumor cell line; experiment: In vitro cell culture growth assay (MTS), MDA-MB-361; assay type: cell-based; conditions: Homo sapiens, three days after drug treatment, read-out: IC50 MDA-MB-361
Human mTOR (FLAG-TOR) = Human mTOR (FLAG-TOR) (Homo sapiens, UniProt P42345); experiment: mTOR kinase assay (DELFIA format, purified enzyme); assay type: biochemical; conditions: read-out: IC50 mTOR
[2] = system: human prostate PC3-mm2 tumor cell line; experiment: In vitro cell culture growth assay (MTS), PC3-mm2; assay type: cell-based; conditions: Homo sapiens, PC3MM2, 72 h, three days after drug treatment, read-out: IC50 PC3-mm2
PI3K-α = PI3K-α (Homo sapiens, UniProt P42336); experiment: PI3K-alpha fluorescence polarization assay; conditions: read-out: IC50 PI3Kα
PI3K-γ = PI3K-γ (Homo sapiens, UniProt P48736); experiment: PI3K-gamma fluorescence polarization assay; conditions: read-out: IC50 PI3Kγ
[3] = MDA-MB-361, 72 h, MTS cell growth assay, MDA-MB-361 cells
[4] = MTS cell growth assay, PC3-mm2 cells
[5] = MDA-MB-361, 72 h, MTS cell growth assay
[6] = 72 h, MTS cell growth assay, MDA-MB-361 cells

Sequence of PI3K-α (P42336 whole entry, species assumed): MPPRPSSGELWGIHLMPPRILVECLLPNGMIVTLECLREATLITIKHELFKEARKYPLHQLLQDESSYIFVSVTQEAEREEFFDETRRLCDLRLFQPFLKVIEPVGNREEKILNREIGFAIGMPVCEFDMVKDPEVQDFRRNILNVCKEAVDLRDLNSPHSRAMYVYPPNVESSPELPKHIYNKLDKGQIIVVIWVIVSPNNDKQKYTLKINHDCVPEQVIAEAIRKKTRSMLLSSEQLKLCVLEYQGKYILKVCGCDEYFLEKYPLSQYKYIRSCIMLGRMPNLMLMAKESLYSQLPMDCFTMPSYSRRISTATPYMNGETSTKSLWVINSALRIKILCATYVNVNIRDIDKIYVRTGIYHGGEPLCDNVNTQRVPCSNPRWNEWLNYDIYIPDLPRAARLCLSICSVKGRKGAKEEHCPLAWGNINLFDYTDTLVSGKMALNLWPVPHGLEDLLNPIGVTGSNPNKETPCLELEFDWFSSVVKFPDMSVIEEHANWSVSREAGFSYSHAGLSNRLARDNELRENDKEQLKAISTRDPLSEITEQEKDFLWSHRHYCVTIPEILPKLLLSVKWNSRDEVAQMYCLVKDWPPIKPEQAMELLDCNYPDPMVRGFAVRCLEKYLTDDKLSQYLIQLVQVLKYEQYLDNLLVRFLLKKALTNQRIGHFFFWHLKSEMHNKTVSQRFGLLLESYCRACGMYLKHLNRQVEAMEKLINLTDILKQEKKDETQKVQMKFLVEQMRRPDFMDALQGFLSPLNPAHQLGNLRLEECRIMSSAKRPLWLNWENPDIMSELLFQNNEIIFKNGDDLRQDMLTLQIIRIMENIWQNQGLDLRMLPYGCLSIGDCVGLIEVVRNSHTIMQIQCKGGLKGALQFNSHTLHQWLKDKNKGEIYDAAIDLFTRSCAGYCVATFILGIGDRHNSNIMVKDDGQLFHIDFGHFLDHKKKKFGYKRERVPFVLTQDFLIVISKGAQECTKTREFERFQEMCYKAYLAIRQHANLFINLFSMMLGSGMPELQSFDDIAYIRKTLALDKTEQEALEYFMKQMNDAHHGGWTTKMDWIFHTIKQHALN
Sequence of PI3K-α (P27986 whole entry partner, species assumed): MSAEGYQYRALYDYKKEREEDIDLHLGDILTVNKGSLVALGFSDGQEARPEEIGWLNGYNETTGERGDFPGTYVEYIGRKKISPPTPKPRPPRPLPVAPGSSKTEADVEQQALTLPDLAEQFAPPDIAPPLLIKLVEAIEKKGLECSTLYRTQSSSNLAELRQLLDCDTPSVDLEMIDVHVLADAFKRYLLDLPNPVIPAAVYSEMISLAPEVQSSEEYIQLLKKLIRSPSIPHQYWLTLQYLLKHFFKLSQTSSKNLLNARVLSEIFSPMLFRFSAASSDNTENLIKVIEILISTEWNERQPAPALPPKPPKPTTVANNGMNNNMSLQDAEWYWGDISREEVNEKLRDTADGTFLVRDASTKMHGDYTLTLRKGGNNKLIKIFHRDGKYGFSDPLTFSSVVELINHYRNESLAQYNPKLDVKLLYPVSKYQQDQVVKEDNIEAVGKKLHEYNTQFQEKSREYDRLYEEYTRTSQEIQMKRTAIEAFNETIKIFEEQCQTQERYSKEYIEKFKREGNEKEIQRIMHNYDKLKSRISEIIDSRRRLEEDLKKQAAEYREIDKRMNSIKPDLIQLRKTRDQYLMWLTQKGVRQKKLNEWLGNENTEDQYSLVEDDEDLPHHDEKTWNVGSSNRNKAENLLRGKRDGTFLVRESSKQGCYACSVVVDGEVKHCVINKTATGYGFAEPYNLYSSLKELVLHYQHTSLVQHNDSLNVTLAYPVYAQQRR
Sequence of PI3K-γ (P48736 whole entry, species assumed): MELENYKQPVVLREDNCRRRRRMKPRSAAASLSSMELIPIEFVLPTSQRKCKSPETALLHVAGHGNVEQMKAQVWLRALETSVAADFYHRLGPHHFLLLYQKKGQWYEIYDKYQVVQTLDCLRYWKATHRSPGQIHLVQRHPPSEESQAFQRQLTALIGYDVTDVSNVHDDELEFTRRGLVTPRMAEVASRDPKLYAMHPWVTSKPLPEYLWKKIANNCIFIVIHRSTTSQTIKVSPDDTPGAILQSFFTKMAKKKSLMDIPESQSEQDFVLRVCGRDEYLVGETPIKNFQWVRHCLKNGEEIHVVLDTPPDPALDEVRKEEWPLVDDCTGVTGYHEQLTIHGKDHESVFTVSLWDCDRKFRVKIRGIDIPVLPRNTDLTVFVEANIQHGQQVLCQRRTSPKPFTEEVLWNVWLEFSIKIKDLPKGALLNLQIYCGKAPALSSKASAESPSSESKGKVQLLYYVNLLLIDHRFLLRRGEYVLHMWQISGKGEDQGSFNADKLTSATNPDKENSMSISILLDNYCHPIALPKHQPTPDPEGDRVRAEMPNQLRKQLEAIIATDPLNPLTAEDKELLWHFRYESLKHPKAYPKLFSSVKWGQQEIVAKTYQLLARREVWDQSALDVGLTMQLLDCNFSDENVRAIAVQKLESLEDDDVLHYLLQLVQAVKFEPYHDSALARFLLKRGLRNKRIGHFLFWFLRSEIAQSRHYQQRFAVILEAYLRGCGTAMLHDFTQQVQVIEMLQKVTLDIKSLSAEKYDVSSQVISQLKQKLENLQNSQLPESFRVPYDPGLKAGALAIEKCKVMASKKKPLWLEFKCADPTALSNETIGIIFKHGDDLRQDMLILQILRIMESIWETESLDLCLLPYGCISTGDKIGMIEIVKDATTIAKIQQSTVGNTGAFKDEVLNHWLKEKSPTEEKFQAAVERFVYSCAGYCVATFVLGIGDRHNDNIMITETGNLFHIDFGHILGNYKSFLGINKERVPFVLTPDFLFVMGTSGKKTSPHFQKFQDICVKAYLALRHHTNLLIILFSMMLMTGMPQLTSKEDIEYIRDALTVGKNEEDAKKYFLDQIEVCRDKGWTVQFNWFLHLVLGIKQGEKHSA
Sequence of Human mTOR (FLAG-TOR) (P42345 1360-2549 limits assumed): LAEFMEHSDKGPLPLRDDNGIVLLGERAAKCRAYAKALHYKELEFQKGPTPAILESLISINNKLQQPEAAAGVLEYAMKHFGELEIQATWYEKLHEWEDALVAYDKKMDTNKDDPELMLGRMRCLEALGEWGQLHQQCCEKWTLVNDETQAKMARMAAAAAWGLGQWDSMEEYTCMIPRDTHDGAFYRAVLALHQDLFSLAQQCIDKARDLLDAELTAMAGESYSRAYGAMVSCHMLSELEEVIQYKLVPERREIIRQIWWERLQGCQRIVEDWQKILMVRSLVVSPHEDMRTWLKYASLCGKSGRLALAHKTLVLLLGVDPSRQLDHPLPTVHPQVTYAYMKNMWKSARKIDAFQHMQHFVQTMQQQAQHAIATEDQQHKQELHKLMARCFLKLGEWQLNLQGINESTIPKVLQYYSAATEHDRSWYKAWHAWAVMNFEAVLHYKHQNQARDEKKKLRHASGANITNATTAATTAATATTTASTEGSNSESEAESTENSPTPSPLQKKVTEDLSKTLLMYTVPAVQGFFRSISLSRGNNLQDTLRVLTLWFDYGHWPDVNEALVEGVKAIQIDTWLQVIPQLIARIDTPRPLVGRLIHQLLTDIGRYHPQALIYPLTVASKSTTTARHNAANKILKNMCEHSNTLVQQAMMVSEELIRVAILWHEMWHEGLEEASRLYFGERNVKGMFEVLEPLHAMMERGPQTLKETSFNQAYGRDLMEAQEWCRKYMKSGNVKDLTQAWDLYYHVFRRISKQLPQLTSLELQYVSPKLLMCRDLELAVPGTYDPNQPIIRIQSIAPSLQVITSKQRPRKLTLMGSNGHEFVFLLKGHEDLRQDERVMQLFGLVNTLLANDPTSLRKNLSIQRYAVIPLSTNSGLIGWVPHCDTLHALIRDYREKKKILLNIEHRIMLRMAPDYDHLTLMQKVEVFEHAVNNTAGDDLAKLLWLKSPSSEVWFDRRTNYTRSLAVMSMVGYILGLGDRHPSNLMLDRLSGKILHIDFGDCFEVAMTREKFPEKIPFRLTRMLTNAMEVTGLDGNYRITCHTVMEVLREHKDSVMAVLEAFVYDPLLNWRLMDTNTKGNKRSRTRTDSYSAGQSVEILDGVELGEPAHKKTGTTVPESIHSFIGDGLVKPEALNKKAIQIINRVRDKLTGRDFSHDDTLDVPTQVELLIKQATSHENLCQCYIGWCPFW

IC50 [1, 3]	IC50 (Human mTOR (FLAG-TOR))	IC50 [2, 4]	IC50 (PI3K-α)	IC50 (PI3K-γ)	IC50 [1, 5]	IC50 ([2]; MTS cell growth assay)	IC50 (PI3K-α; listed as 505)	IC50 (PI3K-γ; listed as 505)	IC50 [1, 6]	SMILES	IC50 ([1]; 72 h, MDA-MB-361 cells, MTS)	IC50 ([2]; PC3-mm2 cells, MTS)
0.004 µM	0.003 µM	0.016 µM	0.004 µM	0.0325 µM	–	–	–	–	–	CCN1CCN(C(=O)c2ccc(NC(=O)Nc3ccc(-c4nc(N5CCOCC5)nc(N5CCOC[C@@H]5C)n4)cc3)cc2)CC1 [Example 620, 1-{4-[(4-ethylpiperazin-1-yl)carbonyl]phenyl}-3-(4-{4-[(3S)-3-methylmorpholin-4-yl]-6-morpholin-4-yl-1,3,5-triazin-2-yl}phenyl)urea]	–	–
–	0.039 µM	–	0.023 µM	0.206 µM	1.03 µM	1.6 µM	–	–	–	O=C(Nc1ccc(F)cc1)Nc1ccc(-c2nc(NC3CNC3)nc(N3CCOCC3)n2)cc1 [Example 19, 1-{4-[4-(azetidin-3-ylamino)-6-morpholin-4-yl-1,3,5-triazin-2-yl]phenyl}-3-(4-fluorophenyl)urea]	–	–
0.0123 µM	0.0031 µM	0.0333 µM	0.001 µM	0.011 µM	0.0123 µM	0.0333 µM	0.0006 µM	0.005 µM	–	CN(C)C1CCN(C(=O)c2ccc(NC(=O)Nc3ccc(-c4nc(C5=CCOCC5)nc(N5CCOCC5)n4)cc3)cc2)CC1 [Example 283, 1-{4-[4-(3,6-dihydro-2H-pyran-4-yl)-6-morpholin-4-yl-1,3,5-triazin-2-yl]phenyl}-3-(4-{[4-(dimethylamino)piperidin-1-yl]carbonyl}phenyl)urea]	–	–
–	0.0042 µM	0.276 µM	0.0165 µM	0.104 µM	–	–	–	–	0.115 µM	CC(C)(C)OC(=O)N1CC(Oc2nc(-c3ccc(NC(=O)Nc4ccncc4)cc3)nc(N3CCOCC3)n2)C1 [Example 494, tert-butyl 3-[(4-morpholin-4-yl-6-{4-[(pyridin-4-ylcarbamoyl)amino]phenyl}-1,3,5-triazin-2-yl)oxy]azetidine-1-carboxylate]	–	–
0.004 µM	0.001 µM	0.021 µM	0.004 µM	0.0585 µM	–	–	–	–	–	C[C@H]1COCCN1c1nc(-c2ccc(NC(=O)Nc3ccc(C(=O)N4CCC(N(C)C)CC4)cc3)cc2)nc(N2CCOC[C@@H]2C)n1 [Example 616, 1-(4-{4,6-bis[(3S)-3-methylmorpholin-4-yl]-1,3,5-triazin-2-yl}phenyl)-3-(4-{[4-(dimethylamino)piperidin-1-yl]carbonyl}phenyl)urea]	–	–
–	0.018 µM	–	0.022 µM	0.184 µM	0.219 µM	0.747 µM	–	–	–	CCCCc1nc(-c2ccc(NC(=O)Nc3ccc(CNCCN(C)C)cc3)cc2)nc(N2CCOCC2)n1 [Example 252, 1-[4-(4-butyl-6-morpholin-4-yl-1,3,5-triazin-2-yl)phenyl]-3-[4-({[2-(dimethylamino)ethyl]amino}methyl)phenyl]urea]	–	–
–	0.003 µM	0.043 µM	0.0165 µM	0.103 µM	–	–	–	–	0.012 µM	CCN1CCN(C(=O)c2ccc(NC(=O)Nc3ccc(-c4nc(N5CCOC[C@H]5C)nc(N5CCOC[C@@H]5C)n4)cc3)cc2)CC1 [Example 625, 1-{4-[(4-ethylpiperazin-1-yl)carbonyl]phenyl}-3-(4-{4-[(3R)-3-methylmorpholin-4-yl]-6-[(3S)-3-methylmorpholin-4-yl]-1,3,5-triazin-2-yl}phenyl)urea]	–	–
–	0.06 µM	–	0.004 µM	0.033 µM	0.134 µM	0.249 µM	–	–	–	Cc1nc(-c2ccc(NC(=O)Nc3ccc(C(=O)N4CCN(C)CC4)cc3)cc2)nc(N2CCOCC2)n1 [Example 166, 1-[4-(4-methyl-6-morpholin-4-yl-1,3,5-triazin-2-yl)phenyl]-3-{4-[(4-methylpiperazin-1-yl)carbonyl]phenyl}urea]	–	–
–	0.00085 µM	–	0.002 µM	0.019 µM	0.001 µM	0.013 µM	–	–	–	O=C(Nc1ccc(C(=O)N2CCC(N3CCOCC3)CC2)cc1)Nc1ccc(-c2nc(N3CCOCC3)nc(N3CCOCC3)n2)cc1 [Example 72, 1-(4-(4,6-dimorpholino-1,3,5-triazin-2-yl)phenyl)-3-(4-(4-morpholinopiperidine-1-carbonyl)phenyl)urea]	–	–
0.026 µM	0.004 µM	0.062 µM	0.0215 µM	0.191 µM	–	–	–	–	–	C[C@H]1COCCN1c1nc(-c2ccc(NC(=O)Nc3ccc(C(=O)N4CCCCC4)cc3)cc2)nc(N2CCOC[C@@H]2C)n1 [Example 637, 1-(4-{4,6-bis[(3S)-3-methylmorpholin-4-yl]-1,3,5-triazin-2-yl}phenyl)-3-[4-(piperidin-1-ylcarbonyl)phenyl]urea]	–	–
–	0.0021 µM	–	0.001 µM	0.019 µM	0.007 µM	0.03 µM	–	–	–	CC(C)c1nc(-c2ccc(NC(=O)Nc3ccc(C(=O)N(C)CCN(C)C)cc3)cc2)nc(N2CCOCC2)n1 [Example 306, N-[2-(dimethylamino)ethyl]-N-methyl-4-[({4-[4-(1-methylethyl)-6-morpholin-4-yl-1,3,5-triazin-2-yl]phenyl}carbamoyl)amino]benzamide]	–	–
0.045 µM	0.011 µM	0.229 µM	0.005 µM	0.058 µM	–	–	–	–	–	CN1CCN(C(=O)c2ccc(NC(=O)Nc3ccc(-c4nc(N5CCCCC5)nc(N5CCOCC5)n4)cc3)cc2)CC1 [Example 597, 1-{4-[(4-methylpiperazin-1-yl)carbonyl]phenyl}-3-[4-(4-morpholin-4-yl-6-piperidin-1-yl-1,3,5-triazin-2-yl)phenyl]urea]	–	–
–	0.00355 µM	0.243 µM	0.0115 µM	0.127 µM	–	–	–	–	0.105 µM	O=C(Nc1ccc(C(=O)NCCN2CCCC2)cc1)Nc1ccc(-c2nc(-c3ccccc3)nc(N3CCOCC3)n2)cc1 [Example 552, 4-({[4-(4-morpholin-4-yl-6-phenyl-1,3,5-triazin-2-yl)phenyl]carbamoyl}amino)-N-(2-pyrrolidin-1-ylethyl)benzamide]	–	–

SMILES	IC50 [1, 3]	IC50 (Human mTOR (FLAG-TOR))	IC50 [2, 4]	IC50 (PI3K-α)	IC50 (PI3K-γ)	IC50 [1, 5]	IC50 ([2]; MTS cell growth assay)	IC50 (PI3K-α; listed as 505)	IC50 (PI3K-γ; listed as 505)	IC50 [1, 6]	IC50 ([1]; 72 h, MDA-MB-361 cells, MTS)	IC50 ([2]; PC3-mm2 cells, MTS)
O=C(Nc1ccc(C(=O)N2CCNCC2)cc1)Nc1ccc(-c2nc(N3CCOCC3)nc(N3C4COCC3COC4)n2)cc1 [Example 772, 1-{4-[4-(3,7-dioxa-9-azabicyclo[3.3.1]non-9-yl)-6-morpholin-4-yl-1,3,5-triazin-2-yl]phenyl}-3-[4-(piperazin-1-ylcarbonyl)phenyl]urea]	0.005 µM	0.00029 µM	0.015 µM	0.0008 µM	0.0095 µM	–	–	–	–	–	–	–
O=C(Nc1ccccc1)Nc1ccc(-c2nc(N3CCOCC3)nc(N3CCOCC3)n2)cc1 [Example 3, 1-[4-(4,6-dimorpholin-4-yl-1,3,5-triazin-2-yl)phenyl]-3-phenylurea]	–	0.00385 µM	–	0.003 µM	0.027 µM	0.045 µM	0.043 µM	–	–	–	–	–
COCCNC(=O)c1ccc(NC(=O)Nc2ccc(-c3nc(N4CCOCC4)nc(N4C5CCCC4COC5)n3)cc2)cc1 [Example 797, N-(2-methoxyethyl)-4-[({4-[4-morpholin-4-yl-6-(3-oxa-9-azabicyclo[3.3.1]non-9-yl)-1,3,5-triazin-2-yl]phenyl}carbamoyl)amino]benzamide]	–	0.0013 µM	–	0.0115 µM	0.076 µM	–	–	–	–	–	0.011 µM	0.029 µM
CN1CCN(c2ccc(NC(=O)Nc3ccc(-c4nc(N5CCOCC5)nc(N5C6CCC5COC6)n4)cc3)cn2)CC1 [Example 766, 1-[6-(4-methylpiperazin-1-yl)pyridin-3-yl]-3-{4-[4-morpholin-4-yl-6-(3-oxa-8-azabicyclo[3.2.1]oct-8-yl)-1,3,5-triazin-2-yl]phenyl}urea]	–	0.00131 µM	0.05 µM	0.024 µM	0.0855 µM	–	–	–	–	0.026 µM	–	–
O=C(Nc1ccncc1)Nc1ccc(-c2nc(N3CCOCC3)nc(N3C4COCC3C(O)C4)n2)cc1 (stereo not drawn) [Example 273, 1-{4-[4-(6-hydroxy-3-oxa-8-azabicyclo[3.2.1]oct-8-yl)-6-morpholin-4-yl-1,3,5-triazin-2-yl]phenyl}-3-pyridin-4-ylurea]	–	0.0008 µM	–	0.004 µM	0.033 µM	0.032 µM	0.08 µM	–	–	–	–	–
O=C(Nc1ccc(-c2nc(N3CCOCC3)nc(N3C4CCC3COC4)n2)cc1)Nc1ccnc(-c2cccnc2)c1 [Example 336, 1-(2,3′-bipyridin-4-yl)-3-{4-[4-morpholin-4-yl-6-(3-oxa-8-azabicyclo[3.2.1]oct-8-yl)-1,3,5-triazin-2-yl]phenyl}urea]	–	0.0036 µM and 0.00345 µM	0.045 µM	0.04 µM	0.044 µM	0.056 µM	0.045 µM	–	–	–	–	–
O=C(Nc1ccc(C(=O)N2CCSCC2)cc1)Nc1ccc(-c2nc(N3CCOCC3)nc(N3C4CCC3COC4)n2)cc1 [Example 762, 1-{4-[4-morpholin-4-yl-6-(3-oxa-8-azabicyclo[3.2.1]oct-8-yl)-1,3,5-triazin-2-yl]phenyl}-3-[4-(thiomorpholin-4-ylcarbonyl)phenyl]urea]	0.008 µM	0.000428 µM	0.007 µM	0.0027 µM	0.0197 µM	–	–	–	–	–	–	–
